From patent US7268160B2, “Remedies” (Takara Bio, Inc., priority 2000, dated 2007)

Legend:
[1] = test system: NGF production in the L-M cells; assay: Enhancing activity for NGF production, Reference Example 1 method (24 hours culture, NGF enzyme immunoassay of culture medium); assay type: cell-based, murine; conditions: for Enhancement of NGF production (in words): L-M cells; for Enhancement Ratio (%): negative control = 100%
Description: (§1) L-M cells (ATCC CCL-1.2) from murine fibroblasts were suspended in an M199 medium (manufactured by ICN) containing 0.5% bactopeptone (manufactured by Gibco BRL) so as to have a concentration of 1.5×10^5 cells/mi. The suspension was put in a 96-well plate in an amount of 0.1 ml each well, and the cells were aseptically cultured. After culturing the cells for 3 days, the medium was removed therefrom, and exchanged with an M199 medium containing 0.5% bovine serum albumin (manufactured by Sigma). Caffeic acid (manufactured by Sigma, dimethyl suif oxide (DMSO) solution), a substance known to have enhancing activity for NGF production, was added to each well containing the cells, so as to have a final concentration of 0, 50, 100 or 200 μM, and the cells were cultured for 24 hours. One having a caffeic acid concentration of 0 μM was used as a negative control. In addition, the final concentration of DM50 in each well was adjusted to 0.1%. After the termination of the culture, the NGF concentration in the culture medium was determined by an enzyme immunoassay method (NGF Emax Immuno Assay System, manufactured by Promega). The degree of the enhancement for NGF production of caffeic acid at each added amount was expressed in percentage as the enhancement ratio (%) on the basis of the NGF concentration in the cell culture medium at each added amount, when the NGF concentration in the cell culture medium of the negative control was defined as 100%. The experiment was carried out twice, and an average value was taken. It was shown that the enhancing activity for NGF production of caffeic acid could be assayed by this method.
The enhancing activity for NGF production of the compound (13) (manufactured by Funakoshi) was assayed in the same manner as in Reference Example 1. The compound (13) was added so as to have a final concentration of 0, 0.5, 1, 2, 5, 10, 20 or 50 μM.
The enhancing activity for NGF production of a compound (14) (manufactured by Sigma) was assayed in the same manner as in Reference Example 1. The compound (14) was added so as to have a final concentration of 0, 50, 100 or 200 μM.
The enhancing activity for NGF production of a compound (15) (manufactured by Sigma) was assayed in the same manner as in Reference Example 1. The compound (15) was added so as to have a final concentration of 0, 12.5, 25 or 50 μM.
The enhancing activity for NGF production of a compound (16) (manufactured by Wako Pure Chemical Industries) was assayed in the same manner as in Reference Example 1. The compound (16) was added so as to have a final concentration of 0, 25, 50 or 100 μM.

[2] = test system: NGF production in the L-M cells; assay: Enhancing activity for NGF production, Example 13 method (20 hours culture after addition); assay type: cell-based, murine; conditions: Mus musculus, negative control = 100%, read-out: Enhancement Ratio (%); for activity at 50 µM: added amount 50 μM; for activity at 100 µM: added amount 100 μM; for activity at 12.5 µM: added amount 12.5 μM; for activity at 25 µM: added amount 25 μM; for activity at 6.25 µM: added amount 6.25 μM; for activity at 3.125 µM: added amount 3.125 μM
Description: as §1
The enhancing activity for NGF production of each of the compounds (5) to (12), (17) to (22), (24) and (25) prepared in Preparation Examples 2 to 9 and Examples 1 to 8, and the compound (23) (rosemarinic acid; manufactured by Funakoshi), or caffeic acid (CA), 4-methylcatechol (4MC) and epinephrine (EN), substances conventionally known to enhance NGF production was assayed in the same manner as in Reference Example 1. In addition, the time period for cell culture after the addition of the compound was 20 hours. A negative control was set for every test of each compound. Each experiment was carried out twice, and an average value was taken.
(1) L-M cells (ATCC CCL-1.2) from murine fibroblasts were suspended in an M199 medium (manufactured by ICN) containing 0.5% bactopeptone (manufactured by Gibco) so as to have a concentration of 1.5×10^5 cells/ml. The suspension was put in a 96-well plate in an amount of 0.1 ml each well, and the cells were aseptically cultured. After culturing the cells for 3 days, the medium was removed therefrom, and exchanged with an M199 medium containing 0.5% bovine serum albumin (manufactured by Sigma). Thereto was added an yellow pigment (powder Sun Yellow No. 2, manufactured by San-Ei Gen F.F.I.) obtained by extraction from flower of Carthamus tinctorius LINNE) as the sample so as to have a final concentration of 0, 1.25, 2.5 or 5 mg/ml, and the cells were cultured for 20 hours. After the termination of the culture, the NGF concentration in the culture medium was assayed by an enzyme immunoassay method (NGF Emax Immuno Assay System, manufactured by Promega). The degree of the enhancement for NGF production was expressed in the percentage as an enhancement ratio (%), when the NGF concentration in the cell culture medium with no addition of the sample as the negative control was defined as 100%. The experiment was carried out twice, and an average value was taken. […]
The enhancing activity for NGF production of the purified safflomin A thus obtained was determined in the same manner as in Example 13. The purified safflomin A was added so as to have a fmal concentration of 0 or 2.5 mg/ml. […]

O=C(O)/C=C/c1ccc(O)c(O)c1 [CA, caffeic acid, reference compound]
Enhancement of NGF production (in words) [1]: enhanced NGF production in a concentration-dependent manner
Enhancement Ratio (%) ([1]; added amount 50 μM): 89.7%
Enhancement Ratio (%) ([1]; added amount 100 μM): 150%
Enhancement Ratio (%) ([1]; added amount 200 μM): 349%
activity at 50 µM [2]: 165%
activity at 100 µM [2]: 170%
activity at 200 µM ([2]; added amount 200 μM): 200%

Cc1ccc(O)c(O)c1 [Compound 4MC, 4-methylcatechol, reference compound]
activity at 12.5 µM [2]: 143%
activity at 25 µM [2]: 313%

CC(=O)Oc1ccc(C(=O)/C=C/c2ccc(OC(C)=O)c(OC(C)=O)c2)c(OC(C)=O)c1 [Compound (5), 3,4,2′,4′-Tetraacetylbutein]
activity at 6.25 µM [2]: 684%

O=C(/C=C/c1ccc(O)c(O)c1)c1ccc(Cl)cc1Cl [Compound (6), 3,4-Dihydroxy-2′,4′-dichloro chalcone]
activity at 6.25 µM [2]: 763%
activity at 12.5 µM [2]: 864%

COc1ccc(C(=O)/C=C/c2ccc(O)c(O)c2)c(OC)c1 [Compound (7), 3,4-Dihydroxy-2′,4′-dimethoxy chalcone]
activity at 6.25 µM [2]: 359%
activity at 12.5 µM [2]: 410%
activity at 25 µM [2]: 899%

CC(=O)C=Cc1ccc(O)c(O)c1 [Compound (8), 4-(3,4-Dihydroxyphenyl)-3-buten-2-one]
activity at 50 µM [2]: 375%
activity at 100 µM [2]: 676%

O=C(/C=C/c1ccc(O)c(O)c1)C12CC3CC(CC(C3)C1)C2 [Compound (9), 1-Adamantyl-3-(3,4-dihydroxyphenyl)-2-propen-1-one]
activity at 3.125 µM [2]: 206%
activity at 6.25 µM [2]: 550%
activity at 12.5 µM [2]: 810%

O=C(CCc1ccc(O)c(O)c1)c1ccc(O)cc1O [Compound (10), Dihydrobutein]
activity at 6.25 µM [2]: 174%
activity at 12.5 µM [2]: 333%
activity at 25 µM [2]: 839%

O=C(C/C=C/c1ccc(O)c(O)c1)C12CC3CC(CC(C3)C1)C2 [Compound (11), 1-Adamantyl-4-(3,4-dihydroxyphenyl)-3-buten-1-one]
activity at 0.781 µM ([2]; added amount 0.781 μM): 775%
activity at 1.563 µM ([2]; added amount 1.563 μM): 866%

O=C(CC(O)Cc1ccc(O)c(O)c1)C12CC3CC(CC(C3)C1)C2 (stereo not shown) [Compound (12), 1-Adamantyl-3-hydroxy-4-(3,4-dihyroxyphenyl)-butan-1-one]
activity at 3.125 µM [2]: 108%
activity at 6.25 µM [2]: 364%
activity at 12.5 µM [2]: 966%
activity at 25 µM [2]: 908%

O=C(/C=C/c1ccc(O)c(O)c1)OCCc1ccccc1 [Compound (15), Caffeic acid phenylethylester]
Enhancement of NGF production (in words) [1]: enhanced NGF production in the L-M cells in a concentration-dependent manner
Enhancement Ratio (%) ([1]; added amount 12.5 μM): 236%
Enhancement Ratio (%) ([1]; added amount 25 μM): 263%
Enhancement Ratio (%) ([1]; added amount 50 μM): 320%

COc1cc(/C=C/C(=O)CC(=O)/C=C/c2ccc(O)c(OC)c2)ccc1O [Compound (16), Curcumin]
Enhancement of NGF production (in words) [1]: enhanced NGF production in the L-M cells in a concentration-dependent manner
Enhancement Ratio (%) ([1]; added amount 25 μM): 114%
Enhancement Ratio (%) ([1]; added amount 50 μM): 116%
Enhancement Ratio (%) ([1]; added amount 100 μM): 261%
